Source: patent publication US12077503B2, “Substituted cyclic amides and their use as herbicides” (FMC CORPORATION, priority 2015, dated 2024)
Like-named read-outs stand apart in the source and are kept apart here.

Assays:
Assay in all cases: Test A preemergence
Assay type in all cases: in vivo
Kochia (Kochia scoparia) = details: Bassia scoparia, pre-emergence, 240 h; for pest or weed control at 125 g/ha: 125 g ai/ha; for pest or weed control at 500 g/ha: 500 g ai/ha
Method in brief: (§1)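 Ratings of 0 (no effect) to 100 (complete control) come from visual comparison with untreated controls roughly 10 d after treatment. Test chemicals, formulated in a non-phytotoxic solvent mixture with surfactant, were applied either as a preemergence directed soil spray on seeded soil or postemergence to one- to two-leaf plants 2 to 10 cm tall.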

[1] = system: barnyardgrass (Echinochloa crus-galli); details: Echinochloa crus-galli, pre-emergence, 240 h; for pest or weed control at 125 g/ha: 125 g ai/ha; for pest or weed control at 500 g/ha: 500 g ai/ha
Method in brief: as §1

[2] = system: giant foxtail (Setaria faberii); details: Setaria faberi, pre-emergence, 240 h; for pest or weed control at 125 g/ha: 125 g ai/ha; for pest or weed control at 500 g/ha: 500 g ai/ha
Method in brief: as §1

[3] = system: ragweed (common ragweed, Ambrosia elatior); details: Ambrosia artemisiifolia, pre-emergence, 240 h; for pest or weed control at 125 g/ha: 125 g ai/ha; for pest or weed control at 500 g/ha: 500 g ai/ha
Method in brief: as §1

[4] = system: ryegrass, Italian (Italian ryegrass, Lolium multiflorum); details: Lolium multiflorum, pre-emergence, 240 h; for pest or weed control at 125 g/ha: 125 g ai/ha; for pest or weed control at 500 g/ha: 500 g ai/ha
Method in brief: as §1

[5] = preemergence, visual injury rating, 0 to 100 scale where 0 is no effect and 100 is complete control, approximately 10 d, read-out: Kochia plant response rating
[6] = preemergence, 0 to 100 scale where 0 is no effect and 100 is complete control, read-out: Kochia plant response rating
[7] = preemergence, visual injury rating, 0 to 100 scale where 0 is no effect and 100 is complete control, approximately 10 d, read-out: Barnyardgrass plant response rating
[8] = preemergence, 0 to 100 scale where 0 is no effect and 100 is complete control, read-out: Barnyardgrass plant response rating
[9] = preemergence, visual injury rating, 0 to 100 scale where 0 is no effect and 100 is complete control, approximately 10 d, read-out: Foxtail, Giant plant response rating
[10] = preemergence, 0 to 100 scale where 0 is no effect and 100 is complete control, read-out: Foxtail, Giant plant response rating
[11] = preemergence, visual injury rating, 0 to 100 scale where 0 is no effect and 100 is complete control, approximately 10 d, read-out: Ragweed plant response rating
[12] = preemergence, 0 to 100 scale where 0 is no effect and 100 is complete control, read-out: Ragweed plant response rating
[13] = preemergence, visual injury rating, 0 to 100 scale where 0 is no effect and 100 is complete control, approximately 10 d, read-out: Ryegrass, Italian plant response rating
[14] = preemergence, 0 to 100 scale where 0 is no effect and 100 is complete control, read-out: Ryegrass, Italian plant response rating
[15] = Preemergence, visual injury vs untreated controls after approximately 10 d, read-out: Kochia plant response rating (0 to 100 scale where 0 is no effect and 100 is complete control)
[16] = Preemergence, visual injury vs untreated controls after approximately 10 d, read-out: Barnyardgrass plant response rating (0 to 100 scale where 0 is no effect and 100 is complete control)
[17] = Preemergence, visual injury vs untreated controls after approximately 10 d, read-out: Foxtail, Giant plant response rating (0 to 100 scale where 0 is no effect and 100 is complete control)
[18] = Preemergence, visual injury vs untreated controls after approximately 10 d, read-out: Ragweed plant response rating (0 to 100 scale where 0 is no effect and 100 is complete control)
[19] = Preemergence, visual injury vs untreated controls after approximately 10 d, read-out: Ryegrass, Italian plant response rating (0 to 100 scale where 0 is no effect and 100 is complete control)
[20] = preemergence, 0 to 100 scale where 0 is no effect and 100 is complete control, approx. 10 d, read-out: Kochia plant response rating
[21] = preemergence, 0 to 100 scale where 0 is no effect and 100 is complete control, approx. 10 d, read-out: Barnyardgrass plant response rating
[22] = preemergence, 0 to 100 scale where 0 is no effect and 100 is complete control, approx. 10 d, read-out: Foxtail, Giant plant response rating
[23] = preemergence, 0 to 100 scale where 0 is no effect and 100 is complete control, approx. 10 d, read-out: Ragweed plant response rating
[24] = preemergence, 0 to 100 scale where 0 is no effect and 100 is complete control, approx. 10 d, read-out: Ryegrass, Italian plant response rating

SMILES	pest or weed control at 500 g/ha (Kochia (Kochia scoparia); [6]) [%]	pest or weed control at 500 g/ha [1, 8] [%]	pest or weed control at 500 g/ha [2, 10] [%]	pest or weed control at 500 g/ha [3, 12] [%]	pest or weed control at 500 g/ha [4, 14] [%]	pest or weed control at 125 g/ha (Kochia (Kochia scoparia); [6]) [%]	pest or weed control at 500 g/ha (Kochia (Kochia scoparia); [15]) [%]	pest or weed control at 125 g/ha [1, 8] [%]	pest or weed control at 500 g/ha [1, 16] [%]	pest or weed control at 125 g/ha [2, 10] [%]	pest or weed control at 500 g/ha [2, 17] [%]	pest or weed control at 125 g/ha [3, 12] [%]	pest or weed control at 500 g/ha [3, 18] [%]	pest or weed control at 125 g/ha [4, 14] [%]	pest or weed control at 500 g/ha [4, 19] [%]	further results
Cc1cc([C@H]2CN(C)C(=O)[C@@H]2C(=O)Nc2ccccc2F)on1 [Compound 1195]	0	80	40	0	0	–	–	–	–	–	–	–	–	–	–	pest or weed control at 125 g/ha (Kochia (Kochia scoparia); [5]): 0%; pest or weed control at 125 g/ha [1, 7]: 0%; pest or weed control at 125 g/ha [2, 9]: 0%; pest or weed control at 125 g/ha [3, 11]: 0%; pest or weed control at 125 g/ha [4, 13]: 0%
CN1C[C@H](c2cc(F)cc(F)c2)[C@@H](C(=O)Nc2ccccc2[S@@+](C)[O-])C1=O [Compound 872]	–	–	–	–	–	0	80	90	100	90	90	60	100	0	40	–
COc1ccc(CN2CC[C@H](c3ccc(F)cc3)[C@@H](C(=O)Nc3cccc(F)c3F)C2=O)cc1 [Compound 919]	–	–	–	–	–	0	0	0	0	0	0	0	0	0	0	–
Cc1c(F)ccc([C@H]2CN(C)C(=O)[C@@H]2C(=O)Nc2ccccc2F)c1F [Compound 833]	–	–	–	–	–	70	80	90	90	90	100	0	20	70	80	–
CN1C[C@H](c2cc(F)c(C(F)(F)F)c(F)c2)[C@@H](C(=O)Nc2cccc(F)c2F)C1=O [Compound 898]	–	–	–	–	–	70	90	90	90	90	90	60	60	40	70	–
Cc1c(F)cccc1NC(=O)[C@H]1C(=O)N(C)C[C@@H]1c1ccc(C(F)(F)F)nc1 [Compound 1197]	100	100	100	100	70	–	–	–	–	–	–	–	–	–	–	pest or weed control at 125 g/ha (Kochia (Kochia scoparia); [5]): 100%; pest or weed control at 125 g/ha [1, 7]: 100%; pest or weed control at 125 g/ha [2, 9]: 100%; pest or weed control at 125 g/ha [3, 11]: 100%; pest or weed control at 125 g/ha [4, 13]: 70%
CN1C[C@H](c2cc(F)cc(F)c2)[C@@H](C(=O)Nc2ncc(C(F)(F)F)cc2F)C1=O [Compound 868]	–	–	–	–	–	0	0	30	60	20	60	0	0	0	0	–
Cc1cc(C)cc([C@H]2CN(C)C(=O)[C@@H]2C(=O)Nc2ccccc2C(F)(F)F)c1 [Compound 912]	–	–	–	–	–	60	70	80	90	90	100	0	0	40	50	–
CCOc1ccc([C@H]2CNC(=O)[C@@H]2C(=O)Nc2cccc(F)c2F)cc1 [Compound 907]	–	–	–	–	–	0	20	70	80	80	90	0	0	0	0	–
Cc1nc([C@H]2CNC(=O)[C@@H]2C(=O)Nc2ccccc2F)cs1 [Compound 1179]	0	0	0	0	0	–	–	–	–	–	–	–	–	–	–	pest or weed control at 125 g/ha (Kochia (Kochia scoparia); [20]): 0%; pest or weed control at 125 g/ha [1, 21]: 0%; pest or weed control at 125 g/ha [2, 22]: 0%; pest or weed control at 125 g/ha [3, 23]: 0%; pest or weed control at 125 g/ha [4, 24]: 0%
Cc1c(F)cccc1NC(=O)[C@H]1C(=O)N(C)C[C@@H]1c1cc(F)cc(F)c1 [Compound 1140]	80	100	100	60	40	–	–	–	–	–	–	–	–	–	–	pest or weed control at 125 g/ha (Kochia (Kochia scoparia); [20]): 80%; pest or weed control at 125 g/ha [1, 21]: 90%; pest or weed control at 125 g/ha [2, 22]: 100%; pest or weed control at 125 g/ha [3, 23]: 30%; pest or weed control at 125 g/ha [4, 24]: 30%
